This is an account of results in patent US11873287B2, “Piperidine-2,6-dione derivatives and ulcerative colitis treating” (TIANJIN HEMAY PHARMACEUTICAL SCI-TECH CO., LTD, priority 2016, dated 2024).

This series has as its system ICR mice. The series can be described thus: Acute toxicity experiment of single oral administration in mice. The class given is in vivo. As for the experimental part:
The mice were fasted one day before the experiment. On the day of the experiment, 6 mice (ICR mice, body weight of 19-21 g, three females and three males) were selected in each experiment group. First of all, one female and one male were selected to orally give 1000 mg/Kg, and observed for 5-10 minutes. If there were no obvious side effects, the remaining 4 animals were orally given the same dose, and observed for 10-15 minutes. If no animal died, the animals were placed in a box to balancedly feed for 7 days. The state was observed and the body weight was recorded daily.
Observation Indexes within 0-15 Minutes After Administration
Activity: restlessness, hyperactivity
Nervous system response: tremor, spasm, convulsion, ataxia, posture abnormality, etc.
Autonomic nerve: exophthalmos, salivation, tears, urination (hematuria), diarrhea, piloerection, breathing, etc.
Observation Indexes Over 7 Days
State of Animal: lethargy, hyperactivity, excitement, hair loss, diarrhea, abnormal behavior, death, etc.

[1] abbreviates: Day 1, 1000 mg/Kg single oral dose.
Where [2] appears, read: Day 2, 1000 mg/Kg single oral dose.
[3] abbreviates: Day 3, 1000 mg/Kg single oral dose.
The mark [4] stands for this setting: Day 4, 1000 mg/Kg single oral dose.
[5] abbreviates: Day 5, 1000 mg/Kg single oral dose.
[6] abbreviates: Day 6, 1000 mg/Kg single oral dose.
The mark [7] stands for this setting: Day 7, 1000 mg/Kg single oral dose.
[8] abbreviates: Female, 1000 mg/Kg single oral dose.
[9] abbreviates: Male, 1000 mg/Kg single oral dose.
The mark [10] stands for this setting: Day 1, 1000 mg/Kg single oral dose, 1000 mg/kg.
Setting [11] is: Day 2, 1000 mg/Kg single oral dose, 1000 mg/kg.
Setting [12] is: Day 3, 1000 mg/Kg single oral dose, 1000 mg/kg.
The mark [13] stands for this setting: Day 4, 1000 mg/Kg single oral dose, 1000 mg/kg.
Where [14] appears, read: Day 5, 1000 mg/Kg single oral dose, 1000 mg/kg.
Setting [15] is: Day 6, 1000 mg/Kg single oral dose, 1000 mg/kg.
[16] abbreviates: Day 7, 1000 mg/Kg single oral dose, 1000 mg/kg.

Several values for one entry are separate records, joined by “and”; a condition that tells them apart may be missing. Equal entries are not always repeated.

On to `COCCCN1C(=O)CCC(N2C(=O)c3ccc(N)cc3C2=O)C1=O` (centres unmarked) [Example 18, 5-amino-2-(1-(3-methoxypropyl)-2,6-dioxopiperidin-3-yl)isoindolin-1,3-dione], for which the “Daily Body Weight of Tested Female Mice (Mean ± SD)” value reads like this: under setting [1], 18.4 ± 0.7 g; under setting [2], 22.5 ± 0.8 g; under setting [3], 23.8 ± 1.1 g; under setting [4], 24.8 ± 1.5 g; under setting [5], 24.8 ± 0.6 g; under setting [6], 25.4 ± 0.7 g. For the same compound, the “Daily Body Weight of Tested Female Mice (Mean ± SD)” value under setting [7] is given as 25.2 ± 1.1 g. For the same compound, the “Daily Body Weight of Tested Male Mice (Mean ± SD)” value reads like this: under setting [1], 18.2 ± 0.4 g; under setting [2], 23.0 ± 0.7 g; under setting [3], 24.1 ± 0.4 g; under setting [4], 25.6 ± 0.8 g; under setting [5], 28.1 ± 1.1 g; under setting [6], 29.0 ± 1.4 g. Moreover, the “Daily Body Weight of Tested Male Mice (Mean ± SD)” value under setting [7] turned out to be 29.0 ± 1.0 g.

Take `COCCN1C(=O)CCC(N2C(=O)c3ccc(F)c(N)c3C2=O)C1=O` (centres unmarked) [Example 9, 4-amino-S-fluoro-2-(1-(2-methoxyethyl)-2,6-dioxopiperidin-3-yl)isoindolin-1,3-dione]: where the note is “mouse, in vivo, po, 1000 mg/kg”, the “Summary of toxic response of tested animals in 7 Days” value (from here on “Summary”) is reported as “Abnormality was not observed in 7 days of the test”.

For `CSCCN1C(=O)CCC(N2C(=O)c3cccc(N)c3C2=O)C1=O` (centres unmarked) [Example 11, 4-amino-2-(1-(2-methylthioethyl)-2,6-dioxopiperidin-3-yl)isoindolin-1,3-dione], the “Daily Body Weight of Tested Female Mice (Mean ± SD)” value reads like this: under setting [1], 18.1 ± 0.2 g; under setting [2], 21.7 ± 0.2 g; under setting [3], 22.4 ± 0.1 g; under setting [4], 22.4 ± 0.1 g; under setting [5], 23.5 ± 0.4 g; under setting [6], 23.2 ± 0.8 g. In addition, the “Daily Body Weight of Tested Female Mice (Mean ± SD)” value under setting [7] was 23.2 ± 0.9 g. For the same compound, the “Daily Body Weight of Tested Male Mice (Mean ± SD)” value runs as follows: under setting [1], 19.5 ± 0.6 g; under setting [2], 23.7 ± 0.8 g; under setting [3], 25.4 ± 0.4 g; under setting [4], 25.4 ± 0.4 g; under setting [5], 27.0 ± 0.5 g; under setting [6], 29.0 ± 0.7 g. The “Daily Body Weight of Tested Male Mice (Mean ± SD)” value under setting [7] came to 29.8 ± 1.0 g. The “Summary” value is “Decrease of activity was observed in one animal after” under setting [8] and “Abnormality was not observed in 7 days of the test” under setting [9].

With `COCCN1C(=O)CCC(N2C(=O)c3cccc(N(C)C)c3C2=O)C1=O` (centres unmarked) [Example 3, 4-dimethylamino-2-(1-(2-methoxyethyl)-2,6-dioxopiperidin-3-yl)isoindolin-1,3-dione], the “Daily Body Weight of Tested Female Mice (Mean ± SD)” value was 18.3 ± 0.4 g and 18.8 ± 0.4 g under setting [10]; 21.7 ± 0.2 g and 22.1 ± 1.2 g under setting [11]; 22.3 ± 0.2 g and 22.7 ± 0.8 g under setting [12]; 22.6 ± 0.8 g and 23.0 ± 1.4 g under setting [13]; 23.0 ± 1.4 g and 23.7 ± 1.9 g under setting [14]; 22.6 ± 1.3 g and 24.1 ± 1.2 g under setting [15]. Besides, the “Daily Body Weight of Tested Female Mice (Mean ± SD)” value under setting [16] is 22.7 ± 0.4 g and 24.4 ± 1.8 g. The “Daily Body Weight of Tested Male Mice (Mean ± SD)” value is, setting by setting: under setting [10], 18.8 ± 0.7 g and 18.0 ± 0.2 g; under setting [11], 23.3 ± 0.1 g and 22.9 ± 0.3 g; under setting [12], 24.3 ± 0.1 g and 24.3 ± 0.9 g; under setting [13], 25.6 ± 0.7 g and 25.2 ± 1.1 g; under setting [14], 26.9 ± 0.8 g and 27.0 ± 1.3 g; under setting [15], 27.9 ± 0.9 g and 28.2 ± 1.9 g. For the same compound, under setting [16], the “Daily Body Weight of Tested Male Mice (Mean ± SD)” value was 28.6 ± 0.4 g and 28.5 ± 2.7 g. The “Summary” value under setting [8] was “Abnormality was not observed in 7 days of the test” and the “Summary” value under setting [9] is “Abnormality was not observed in 7 days of the test”.

As for `COCCN1C(=O)CCC(N2C(=O)c3cccc(NC(C)=O)c3C2=O)C1=O` (centres unmarked) [Example 1, 4-acetylamino-2-(1-(2-methoxyethyl)-2,6-dioxopiperidin-3-yl)isoindolin-1,3-dione], the “Daily Body Weight of Tested Female Mice (Mean ± SD)” value under setting [1] is 18.5 ± 0.1 g; the “Daily Body Weight of Tested Female Mice (Mean ± SD)” value under setting [2] is reported as 22.8 ± 0.3 g; the “Daily Body Weight of Tested Female Mice (Mean ± SD)” value under setting [3] was determined as 23.2 ± 0.7 g; the “Daily Body Weight of Tested Female Mice (Mean ± SD)” value under setting [4] came to 24.0 ± 0.2 g; the “Daily Body Weight of Tested Female Mice (Mean ± SD)” value under setting [5] came to 25.3 ± 1.6 g; the “Daily Body Weight of Tested Female Mice (Mean ± SD)” value under setting [6] is 25.7 ± 1.6 g. The “Daily Body Weight of Tested Female Mice (Mean ± SD)” value under setting [7] turned out to be 27.1 ± 1.1 g. For the same compound, the “Daily Body Weight of Tested Male Mice (Mean ± SD)” value is on record as 20.1 ± 1.4 g under setting [1]; 23.8 ± 1.4 g under setting [2]; 24.9 ± 1.0 g under setting [3]; 26.3 ± 1.2 g under setting [4]; 27.7 ± 1.3 g under setting [5]; 29.2 ± 1.4 g under setting [6]. In addition, the “Daily Body Weight of Tested Male Mice (Mean ± SD)” value under setting [7] was determined as 29.4 ± 1.4 g.

Turning to `COCCN1C(=O)CCC(N2C(=O)c3c(N)ccc(O)c3C2=O)C1=O` (centres unmarked) [Example 10, 4-amino-7-hydroxy-2-(1-(2-methoxyethyl)-2,6-dioxopiperidin-3-yl)isoindolin-1,3-dione], the “Daily Body Weight of Tested Female Mice (Mean ± SD)” value is given as 19.2 ± 0.5 g under setting [1]; 21.9 ± 0.4 g under setting [2]; 22.4 ± 0.2 g under setting [3]; 22.4 ± 0.2 g under setting [4]; 22.9 ± 0.6 g under setting [5]; 24.1 ± 1.5 g under setting [6]. Further, the “Daily Body Weight of Tested Female Mice (Mean ± SD)” value under setting [7] was 24.2 ± 1.8 g. Also, the “Daily Body Weight of Tested Male Mice (Mean ± SD)” value worked out at 19.4 ± 0.3 g under setting [1]; 24.4 ± 0.6 g under setting [2]; 25.5 ± 0.9 g under setting [3]; 25.5 ± 0.9 g under setting [4]; 26.8 ± 0.9 g under setting [5]; 29.2 ± 0.7 g under setting [6]. For the same compound, under setting [7], the “Daily Body Weight of Tested Male Mice (Mean ± SD)” value is given as 30.3 ± 0.7 g. Besides, the “Summary” value is on record as “Decrease of activity was observed in all the animals within 30” under setting [8] and “Decrease of activity was observed in all the animals within 30” under setting [9].
